Results as given in patent US12209079B2 (GENERAL INCORPORATED ASSOCIATION PHARMA VALLEY PROJECT …, priority 2017, dated 2025).
Counter-ions that a name gives are not always drawn.

How the values were obtained:
TDO in A172 cells = target: T1, TDO in A172 cells (Homo sapiens, UniProt P48775); assay: TDO cell-based assay, kynurenine production in A172 cells; conditions: A 172; final concentration of the compound 10 μM; rate relative to culture without compound
T1 construct: endogenous in cells; host or cells: A172 cells
T1 sequence (P48775 whole entry): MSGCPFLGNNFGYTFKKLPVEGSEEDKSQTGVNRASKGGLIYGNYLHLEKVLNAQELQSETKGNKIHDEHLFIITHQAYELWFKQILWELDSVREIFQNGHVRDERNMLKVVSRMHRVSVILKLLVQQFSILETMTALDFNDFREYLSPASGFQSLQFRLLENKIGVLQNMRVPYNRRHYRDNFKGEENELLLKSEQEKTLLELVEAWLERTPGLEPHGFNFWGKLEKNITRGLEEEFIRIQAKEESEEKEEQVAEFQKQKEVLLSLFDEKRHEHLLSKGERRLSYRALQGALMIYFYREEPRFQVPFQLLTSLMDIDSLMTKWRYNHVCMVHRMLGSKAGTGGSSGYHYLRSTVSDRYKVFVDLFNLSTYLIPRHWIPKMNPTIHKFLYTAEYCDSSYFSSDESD
Description: A172 cells (3.0×10^5 cells/mL) suspended in a culture medium for assay (PRMI-1640; Wako 186-02155, 5% FBS, 50 units/mL penicillin, and 50 μg/mL streptomycin) were inoculated at 100 μL/well to a transparent 96-well flat-bottomed plate and cultured at 37° C. for 24 hours in 5% CO2. The culture medium was removed from the cells thus cultured. A culture medium for assay was added at 80 μL/well, and further, a compound solution was added at 10 μL/well. The cells were preincubated for 1 hour. Then, the whole amount was brought to 100 μL/well by the addition of 10 μL/well of a 5 mM aqueous tryptophan solution (final concentration of L-tryptophan: 524 μM), and the cells were cultured for 24 hours. After the culture, absorbance was measured at 460 nm using SpectraMax MSSK (Molecular Devices, LLC) (background measurement). After the measurement, a kynurenine quantification reagent (prepared with 7% [v/v] aqueous trichloroacetic acid solution and a solution of 2% [w/v] p-dimethylbenzaldehyde in acetic acid at 2:5 [v/v]) was added at 200 μL/well and reacted for 5 minutes, followed by the measurement of absorbance at 460 nm again. The rate of kynurenine production was calculated according to the following expression. Rate of kynurenine production (%) for each compound in the case of using A172 cells={(Absorbance at 460 nm in the tryptophan-containing culture medium comprising the A172 cells and the solution of the compound of the present invention−Absorbance of the background)/(Absorbance at 460 nm in the tryptophan-containing culture medium without the addition of the compound solution−Absorbance of the background)}×100

IDO in A431 cells = target: T2, IDO in A431 cells (Homo sapiens, UniProt P14902); assay: IDO cell-based assay, kynurenine production in IFN-γ stimulated A431 cells; conditions: A-431, 24 h; final concentration of the compound 10 μM; rate relative to culture without compound
T2 construct: endogenous in cells; host or cells: A431 cells, IFN-γ stimulated
T2 sequence (P14902 whole entry): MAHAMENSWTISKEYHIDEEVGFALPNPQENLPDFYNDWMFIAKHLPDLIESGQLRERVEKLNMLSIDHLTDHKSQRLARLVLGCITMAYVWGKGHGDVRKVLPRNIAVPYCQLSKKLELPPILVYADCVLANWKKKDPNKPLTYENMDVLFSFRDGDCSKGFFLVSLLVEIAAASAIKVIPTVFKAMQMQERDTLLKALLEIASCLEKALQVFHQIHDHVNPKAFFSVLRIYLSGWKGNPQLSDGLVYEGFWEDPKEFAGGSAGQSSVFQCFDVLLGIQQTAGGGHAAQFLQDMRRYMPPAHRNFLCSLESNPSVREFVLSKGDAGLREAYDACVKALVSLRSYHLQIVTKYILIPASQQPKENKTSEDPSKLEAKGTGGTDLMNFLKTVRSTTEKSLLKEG
Description: A431 cells (3.0×10^5 cells/mL) suspended in a culture medium for assay (D-MEM; Wako 040-30095, 5% FBS, 50 units/mL penicillin, 50 μg/mL streptomycin, and 2 mM L-glutamine) were inoculated at 100 μL/well to a transparent 96-well flat-bottomed plate and cultured at 37° C. for 24 hours in 5% CO2. The culture medium was removed from the cells thus cultured. A tryptophan-containing culture medium (culture medium for assay supplemented with 178 μM L-tryptophan) was added at 80 μL/well, and further, a compound solution was added at 10 μL/well. The cells were preincubated for 1 hour. Then, the whole amount was brought to 100 μL/well by the addition of 10 μL/well of IFN-γ diluted into 100 ng/mL with a tryptophan-containing culture medium, and the cells were cultured for 24 hours. After the culture, absorbance was measured at 460 nm using SpectraMax MSSK (Molecular Devices, LLC) (background measurement). After the measurement, a kynurenine quantification reagent (prepared with 7% [v/v] aqueous trichloroacetic acid solution and a solution of 2% [w/v] p-dimethylbenzaldehyde in acetic acid at 2:5 [v/v]) was added at 200 μL/well and reacted for 5 minutes, followed by the measurement of absorbance at 460 nm again. The rate of kynurenine production was calculated according to the following expression. Rate of kynurenine production (%) for each compound in the case of using A431 cells={(Absorbance at 460 nm in the tryptophan-containing culture medium comprising the A431 cells and the solution of the compound of the present invention−Absorbance of the background)/(Absorbance at 460 nm in the tryptophan-containing culture medium without the addition of the compound solution−Absorbance of the background)}×100 TDO Cell-Based Assay Protocol

[1] = target: rhTDO (recombinant human TDO) (Homo sapiens, UniProt P48775); assay: Enzyme assay using rhTDO (rate of kynurenine production); type: biochemical; conditions: 2 h; final concentration of the compound 10 μM; rate relative to reaction without compound; read-out: rhTDO-mediated kynurenine production
Sequence of rhTDO (recombinant human TDO) (P48775 whole entry): as the sequence (P48775 whole entry) above
Description: 4 μL of a compound solution was added to 176 μL of a rhTDO reaction solution (0.5 M potassium phosphate buffer (20 μL), 0.2 M ascorbic acid (20 μL), 0.5 mM methylene blue (4 μL), 10 mg/mL catalase (2 μL), H2O (128 μL), and rhTDO (2 μL)). The mixture was pipetted and preincubated at 37° C. for 10 minutes. Then, the whole amount was brought to 200 μL by the addition of 20 μL of a 20 mM aqueous tryptophan solution, and the mixture was pipetted again and reacted at 37° C. for 120 minutes. After the reaction, the enzymatic reaction was terminated by the addition of 40 μL of a 30% [v/v] aqueous trichloroacetic acid solution to the reaction solution. The mixture was well stirred by pipetting and heated at 50° C. for 15 minutes so that N-formylkynurenine was converted to kynurenine. The reaction solution thus heated was centrifuged (15,000 rpm, 5 min, 24° C.), and 150 μL of the supernatant was transferred to a transparent 96-well flat-bottomed plate, followed by the measurement of absorbance at 490 nm using SpectraMax M5 SK (background measurement). After the measurement, a solution of 2% [w/v] p-dimethylbenzaldehyde in acetic acid was added at 150 μL/well and reacted for 5 minutes, followed by the measurement of absorbance at 490 nm again. The rate of kynurenine production was calculated according to the following expression. Rate of kynurenine production (%) for each compound in the case of using rhTDO={(Absorbance at 490 nm in the tryptophan-containing aqueous solution comprising rhTDO and the compound of the present invention−Absorbance of the background)/(Absorbance at 490 nm in the tryptophan-containing aqueous solution without the addition of the compound solution−Absorbance of the background)}×100 IDO Cell-Based Assay Protocol

[2] = target: rhIDO (recombinant human IDO) (Homo sapiens, UniProt P14902); assay: Enzyme assay using rhIDO (rate of kynurenine production); type: biochemical; conditions: 2 h, read-out: rhIDO-mediated kynurenine production; for remaining activity at 10 µM: final concentration of the compound 10 μM, rate relative to reaction without compound
Sequence of rhIDO (recombinant human IDO) (P14902 whole entry): as the sequence (P14902 whole entry) above
Description: Enzyme Assay Protocol Using rhIDO (Recombinant Human IDO)
4 μL of a compound solution was added to 176 μL of a rhIDO reaction solution (0.5 M potassium phosphate buffer (20 μL), 0.2 M ascorbic acid (20 μL), 0.5 mM methylene blue (4 μL), 10 mg/mL catalase (2 μL), H2O (128 μL), and rhIDO (2 μL)). The mixture was pipetted and preincubated at 37° C. for 10 minutes. Then, the whole amount was brought to 200 μL by the addition of 20 μL of a 2 mM aqueous tryptophan solution, and the mixture was pipetted again and reacted at 37° C. for 120 minutes. After the reaction, the enzymatic reaction was terminated by the addition of 40 μL of a 30% [v/v] aqueous trichloroacetic acid solution to the reaction solution. The mixture was well stirred by pipetting and heated at 50° C. for 15 minutes so that N-formylkynurenine was converted to kynurenine. The reaction solution thus heated was centrifuged (15,000 rpm, 5 min, 24° C.), and 150 μL of the supernatant was transferred to a transparent 96-well flat-bottomed plate, followed by the measurement of absorbance at 490 nm using SpectraMax MSSK (background measurement). After the measurement, a solution of 2% [w/v] p-dimethylbenzaldehyde in acetic acid was added at 150 μL/well and reacted for 5 minutes, followed by the measurement of absorbance at 490 nm again. The rate of kynurenine production was calculated according to the following expression. Rate of kynurenine production (%) for each compound in the case of using rhIDO={(Absorbance at 490 nm in the tryptophan-containing aqueous solution comprising rhIDO and the compound of the present invention−Absorbance of the background)/(Absorbance at 490 nm in the tryptophan-containing aqueous solution without the addition of the compound solution−Absorbance of the background)}×100 Enzyme Assay Protocol Using rhTDO (Recombinant Human TDO)

SMILES | remaining activity at 10 µM (TDO in A172 cells) [%] | remaining activity at 10 µM (IDO in A431 cells) [%] | remaining activity at 10 µM [1] [%] | remaining activity at 3 µM ([2]; final concentration of the compound 3 μM (data with *)) [%] | remaining activity at 10 µM [2] [%]
FC(F)(F)c1ccc(CCN2CN=C(SCc3ccc(Br)cc3CSC3=NCN(CCc4ccc(C(F)(F)F)cc4)CN3)NC2)cc1 [Compound 141, 6,6′-(((4-Bromo-1,2-phenylene)bis(methylene))bis(sulfanediyl))bis(3-(4-(trifluoromethyl)phenethyl)-1,2,3,4-tetrahydro-1,3,5-triazine)] | 11 | 5 | 14 | – | 21
Fc1ccc(CSC2=NCN(CCc3ccc(Cl)c(Cl)c3)CN2)c(CSC2=NCN(CCc3ccc(Cl)c(Cl)c3)CN2)c1 [Compound 133, 6,6′-(((4-Fluoro-1,2-phenylene)bis(methylene))bis(sulfanediyl))bis(3-(3,4-dichlorophenethyl)-1,2,3,4-tetrahydro-1,3,5-triazine)] | 6 | 13 | 10 | – | 1
c1csc(CCN2CN=C(SCc3ccccc3CSC3=NCN(CCc4cccs4)CN3)NC2)c1 [Compound 40, 1,2-Bis (((5-(2-(thiophen-2-yl)ethyl)-1,4,5,6-tetrahydro-1,3,5-triazin-2-yl)thio)methyl)benzene] | 1 | 9 | 29 | – | 34
N=C(N)SCc1ccccc1CC(=O)NCCc1ccc(Cl)c(Cl)c1 [Compound 70, 2-(2-((3,4-Dichlorophenethyl)amino)-2-oxoethyl)benzyl carbamimidothioate hydrobromide] | 96 | 98 | 35 | – | 72
Brc1cccc(CCN2CN=C(SCc3ccccc3CSC3=NCN(CCc4cccc(Br)c4)CN3)NC2)c1 [Compound 19, 1,2-bis(((5-(3-bromophenethyl)-1,4,5,6-tetrahydro-1,3,5-triazin-2-yl)thio)methyl)benzene] | 1 | 5 | 46 | – | 43
Fc1ccc(CSC2=NCN(CCc3cccc(C(F)(F)F)c3)CN2)c(CSC2=NCN(CCc3cccc(C(F)(F)F)c3)CN2)c1 [Compound 150, 6,6′-(((4-Fluoro-1,2-phenylene)bis(methylene))bis(sulfanediyl))bis(3-(3-(trifluoromethyl)phenethyl)-1,2,3,4-tetrahydro-1,3,5-triazine)] | 13 | 15 | 11 | – | 23

Further lines, with some results ahead:

remaining activity at 10 µM (TDO in A172 cells) [%] | remaining activity at 10 µM (IDO in A431 cells) [%] | remaining activity at 10 µM [1] [%] | remaining activity at 3 µM ([2]; final concentration of the compound 3 μM (data with *)) [%] | SMILES | remaining activity at 10 µM [2] [%]
5 | 10 | 5 | – | N/C(=N\c1ccc(F)c(Cl)c1)SCc1cc(Cl)c(Cl)cc1CS/C(N)=N/c1ccc(F)c(Cl)c1 [Compound 134, (4,5-Dichloro-1,2-phenylene)bis(methylene) (E,E)-bis(N′-(3-chloro-4-fluorophenyl)carbamimidothioate) dihydrobromide] | -2
18 | 56 | 65 | – | N/C(=N\c1ccc(Br)cc1)SCc1cc(Br)ccc1C(=O)NCc1ccc(Cl)cc1 [Compound 84, 5-Bromo-2-((4-chlorobenzyl)carbamoyl)benzyl (E)-N′-(4-bromophenyl)carbamimidothioate hydrobromide] | 84
-3 | 4 | 4 | 29 | Clc1cc(CSC2=NCN(CC3CC3)CN2)c(CSC2=NCN(CC3CC3)CN2)cc1Cl [Compound 73, 6,6′-(((4,5-Dichloro-1,2-phenylene)bis(methylene))bis(sulfanediyl))bis(3-(cyclopropylmethyl)-1,2,3,4-tetrahydro-1,3,5-triazine)] | –
70 | 61 | 84 | – | N#Cc1ccc(CNC(=O)c2ncccc2CS/C(N)=N/c2ccc(F)c(Cl)c2)cc1 [Compound 101, (2-((4-Cyanobenzyl)carbamoyl)pyridin-3-yl)methyl (E)-N′-(3-chloro-4-fluorophenyl)carbamimidothioate hydrobromide] | 78
7 | 14 | 8 | – | Fc1ccc(CSC2=NCN(CC3CC3)CN2)c(CSC2=NCN(CC3CC3)CN2)c1 [Compound 120, 6,6′-(((4-Fluoro-1,2-phenylene)bis(methylene))bis(sulfanediyl))bis(3-(cyclopropylmethyl)-1,2,3,4-tetrahydro-1,3,5-triazine)] | 41
